Source: PubChem BioAssay AID1259332 (Broad Institute, 2017)
“And” between values parts separate entries of the source, which are not always exact repeats. Equal values may be shown once. The source made the active and inactive calls. How the calls were made is not given here.

test system: B cell line, CD40 signaling inhibition reporter; assay: CD40 pathway inhibition in B cells – B cell lineage, dose response (AID 1259332);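 further: cells stimulated with CD40 ligand tCD40L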

SMILES	AC50
C=C1C(=O)OC2CC1C(O)CC(C)=CCCC(C)=CC(O)CC2C (stereo not drawn)	6 µM
O=C(Nc1nnc(C2CC2)s1)C1CC(=O)N(c2ccc3c(c2)OCCO3)C1 (stereo not drawn)	> 20 µM (inactive)
Cc1[nH]c2ccccc2c1C(c1ccccn1)N1CCC(C(N)=O)CC1 (stereo not drawn)	9.34 µM
O=C(c1ccc(Nc2nccc(-c3cc4ccccc4s3)n2)cc1)N1CCC(N2CCCC2)CC1	1.07 µM and 0.541 µM
N#C[C@H]1[C@H](c2ccc(C#Cc3ccc(F)cc3)cc2)[C@@H](CO)N1C(=O)C1CCC1	7.7 µM
Cc1ccc2nc(C(F)(F)F)c(C#N)c(N)c2c1	6.7 µM
C1CCC(C(CC2CCCCN2)C2CCCCC2)CC1 (stereo not drawn)	2.39 µM
O=C(C[C@@H]1CC[C@H]2[C@@H](COC[C@@H](O)CN2Cc2cc(F)ccc2F)O1)NCc1ccc(Oc2ccccc2)cc1	> 20 µM (inactive)
O=C(C[C@@H]1CC[C@@H]2[C@H](COC[C@H](O)CN2Cc2cc(F)ccc2F)O1)NCc1ccc(Oc2ccccc2)cc1	6.77 µM
COC(=O)C1=C(C)NC(C)=C(C(=O)OCCCN2CCC(c3ccccc3)(c3ccccc3)CC2)[C@H]1c1cccc([N+](=O)[O-])c1	11.4 µM
C=C1C(=O)O[C@H]2[C@H]1CC/C(C)=C/CC[C@@]1(C)O[C@@H]21	4.54 µM
COc1ccc(S(=O)(=O)N(C)C[C@H]2Oc3ccc(NC(=O)Nc4ccc(C(F)(F)F)cc4)cc3C(=O)N([C@H](C)CO)C[C@H]2C)cc1	10.5 µM
O=S(=O)(CCSc1ccccn1)c1nc2ccccc2s1	8.22 µM
CC(C)(C)[C@H](N)C(=O)N[C@H]1CCC2C3CC=C4C[C@@H](O)CC[C@]4(C)C3CC[C@@]21C (stereo partly drawn)	5.04 µM
CC(C)(C)CC(C)(C)c1ccc(OCCOCC[N+](C)(C)Cc2ccccc2)cc1	1.62 µM
C[C@@H]1CN([C@H](C)CO)C(=O)c2ccccc2-c2ccccc2CO[C@@H]1CN(C)Cc1ccccc1C(F)(F)F	9.99 µM
O=C(Nc1ccccc1)N1CC(=O)N2[C@H](CO)[C@@H](c3ccc(C#CC4CCCCC4)cc3)[C@H]2C1	11 µM

SMILES	AC50
Cn1cnc(CCNC(=O)C[C@@H]2CC[C@@H]3[C@H](COC[C@@H](O)CN3C(=O)Nc3ccc(C(F)(F)F)cc3)O2)c1	8.76 µM
CS(=O)(=O)c1ccc(C(=O)OCC(=O)NC(=O)C2CCCCC2)cc1[N+](=O)[O-]	> 20 µM (inactive)
CN(C)C(=S)SSC(=S)N(C)C	0.152 µM
CC(C)c1c(O)ccc2c1CCC1C(C)(C)CCC[C@]21C (stereo partly drawn)	5.44 µM
C[C@@H]1CCCCO[C@H](CN(C)CC2CCCCC2)[C@H](C)CN([C@@H](C)CO)C(=O)c2cc(NC(=O)Nc3ccc(C(F)(F)F)cc3)ccc2O1	8.6 µM
Cc1ccc(S(=O)(=O)N2CCCC2CNC(=O)c2ccc3c(c2)OCO3)cc1 (stereo not drawn)	3.91 µM
C=C1C(=O)C23C(O)C1CCC2C12CCCC(C)(COC(C)=O)C1C(O)C3(O)OC2 (stereo not drawn)	0.567 µM
COc1c(O)cc2oc3cc(O)c(CC=C(C)C)c(O)c3c(=O)c2c1CC=C(C)C	3.6 µM
COc1ccc2c3c([nH]c2c1)[C@H](CO)N(C(=O)Nc1cccc(F)c1)CC31CCN(S(=O)(=O)c2cccc(C)c2)CC1	> 20 µM (inactive)
Cc1cc(C)nc(Sc2ncnc(N)c2[N+](=O)[O-])n1	2.63 µM
c1ccc(-c2nnc(-c3ccccn3)nn2)nc1	10.5 µM
C[C@@H]1CN([C@@H](C)CO)C(=O)c2c(c3ccccc3n2C)-c2ccccc2CO[C@H]1CN(C)Cc1cccc(C(=O)Nc2ccccc2N)c1	> 20 µM (inactive)
CC(C)(C)CC(C)(C)c1ccc(O)c(Cc2ccc(Cl)cc2Cl)c1	7.11 µM
COc1ccc(S(=O)(=O)Nc2ccc3c(c2)C(=O)N([C@H](C)CO)C[C@@H](C)[C@@H](CN(C)Cc2ccc(C(F)(F)F)cc2)OCCCC[C@H](C)O3)cc1	6.77 µM
CCCNC(=O)N1[C@@H](C#N)[C@H](c2ccc(-c3cccc(OC)c3)cc2)[C@@H]1CO	11 µM
CC1OC(OC2CC(O)C3(CO)C4C(O)CC5(C)C(C6=CC(=O)OC6)CCC5(O)C4CCC3(O)C2)C(O)C(O)C1O (stereo not drawn)	0.405 µM
